A value given as a limit tells only on which side of the number the result lay.

Holding throughout (assay type): cell-based
The test system of one experiment is SKMEL3. Kind of experiment: Inhibition of cell proliferation, SKMEL3. Particulars: Homo sapiens, SK-MEL3; skin; 72 h; methylene blue or CellTiter-Glo. As for the experimental part: (§1) II. Inhibition of Cell Proliferation by PLK1 Inhibitors.
(§2) Exponentially growing cell lines of different tumor origins, cultured in appropriate media containing 10% fetal bovine serum at 37° C. in a 5% CO2 incubator were plated in 96 or 384-well plates. Twenty four hours post-plating, cells were treated with different concentrations of test compounds ranging from 20 μM to 0.04 nM. Several wells were left untreated as a control. Seventy two hours post-treatment, cell numbers were determined using different techniques; 100 μl per well of methylene blue (Sigma M9140) (0.5% in 50:50 Ethanol:water), or 10-100 μl per well of CellTiter-Glo (Promega #G7573), depending on well size. For methylene blue staining, stain was incubated at room temperature for 30 minutes before plates were rinsed and dye solubilized in 1% N-lauroyl sarcosine, sodium salt, (Sigma L5125, in PBS). Plates were read on a microplate reader, measuring the OD at 620 nm. For CellTiter-Glo, plates were incubated at room temperature for 15 minutes and the chemiluminescent signal was read on the Victor V or Envison 2100 reader.
(§3) Percent inhibition of cell growth was expressed as percent proliferation relative to 100% proliferation (control). […]
(In general: ATP-based viability assays read luminescence as a measure of living cells.)

The next experiment deals with H1299. As to the kind of experiment: Inhibition of cell proliferation, H1299. Particulars: Homo sapiens, NCI-H1299; Lung; 72 h; methylene blue or CellTiter-Glo. The procedure: as §1, §2, §3
The subject of a further experiment is A431. As to the kind of experiment: Inhibition of cell proliferation, A431. The conditions noted are these: Homo sapiens, A-431; skin; 72 h; methylene blue or CellTiter-Glo. The procedure: as §1, §2, §3
The subject of the next experiment is SW156. As to the kind of experiment: Inhibition of cell proliferation, SW156. The conditions noted are these: kidney; 72 h; methylene blue or CellTiter-Glo. The procedure:
as §1, §2, §3

The subject of a further experiment is Hep3B. As to the kind of experiment: Inhibition of cell proliferation, Hep3B. Particulars: Homo sapiens, liver, 72 h, methylene blue or CellTiter-Glo. The procedure: as §1, §2, §3
For a further experiment, the system named is BT474. As to the kind of experiment: Inhibition of cell proliferation, BT474. Particulars: Homo sapiens, BT-474; breast; 72 h; methylene blue or CellTiter-Glo. The procedure: as §1, §2, §3
Another experiment deals with BT549. Kind of experiment: Inhibition of cell proliferation, BT549. Particulars: Homo sapiens, BT-549; breast; 72 h; methylene blue or CellTiter-Glo. As for the experimental part:
as §1, §2, §3

In the next experiment the test system is NCI-N87. Kind of experiment: Inhibition of cell proliferation, NCI-N87. Particulars: Homo sapiens, stomach, 72 h, methylene blue or CellTiter-Glo. As for the experimental part:
as §1, §2, §3

For a further experiment, the system named is Calu1. Kind of experiment: Inhibition of cell proliferation, Calu1. The conditions noted are these: Homo sapiens, Calu-1; lung; 72 h; methylene blue or CellTiter-Glo. As for the experimental part: as §1, §2, §3
The subject of another experiment is MV522. As to the kind of experiment: Inhibition of cell proliferation, MV522. The conditions noted are these: Lung, 72 h, methylene blue or CellTiter-Glo. The procedure:
as §1, §2, §3

The next experiment concerns HCT116. Kind of experiment: Inhibition of cell proliferation, HCT116. The conditions noted are these: Homo sapiens, HCT-116; 72 h treatment; methylene blue or CellTiter-Glo.
The subject of another experiment is LNCaP. Kind of experiment: Inhibition of cell proliferation, LNCaP. Particulars: Homo sapiens, Prostate, 72 h, methylene blue or CellTiter-Glo. The procedure:
as §1, §2, §3

The test system of another experiment is MX-1. As to the kind of experiment: Inhibition of cell proliferation, MX-1. Particulars: Homo sapiens, MX1; Breast; 72 h; methylene blue or CellTiter-Glo. The procedure:
as §1, §2
Percent inhibition of cell growth was expressed as percent proliferation relative to 100% proliferation (control). Concentration of test compound that inhibited 50% of cell growth (IC50) was determined by 4 parameter fit of data using XLfit, (value of no cell control was substracted from all samples for background). The data are shown in Table 1 and Table 2 below and represent a compilation of several different experiments each performed using the general parameters outlined above, although minor variations may have been employed in some instances, in Table 1 and Table 2, +=IC50>1 μM; ++=IC50 0.5-1 μM: +++=IC50<0.5 μM.

The next experiment has as its system BDCM. As to the kind of experiment: Inhibition of cell proliferation, BDCM. Particulars: peripheral blood; 72 h; methylene blue or CellTiter-Glo. The procedure:
as §1, §2, §3

The test system of a further experiment is ASPC3. Kind of experiment: Inhibition of cell proliferation, ASPC3. Particulars: Pancreatic; 72 h; methylene blue or CellTiter-Glo. The procedure:
as §1, §2, §3

For another experiment, the system named is NCI-H727. As to the kind of experiment: Inhibition of cell proliferation, NCI-H727. Particulars: Homo sapiens, lung, 72 h, methylene blue or CellTiter-Glo. The procedure: as §1, §2, §3
A further experiment concerns CRO-AP2. Kind of experiment: Inhibition of cell proliferation, CRO-AP2. The conditions noted are these: Homo sapiens, peripheral blood, 72 h, methylene blue or CellTiter-Glo. The procedure:
as §1, §2, §3

In the next experiment the test system is BXPC3. As to the kind of experiment: Inhibition of cell proliferation, BXPC3. The conditions noted are these: Homo sapiens, BXPC-3; Pancreatic; 72 h; methylene blue or CellTiter-Glo. The procedure: as §1, §2, §3
Another experiment deals with A 704. Kind of experiment: Inhibition of cell proliferation, A 704. Particulars: Homo sapiens, A704; kidney; 72 h; methylene blue or CellTiter-Glo. The procedure: as §1, §2, §3
Another experiment deals with A2780. As to the kind of experiment: Inhibition of cell proliferation, A2780. Particulars: Homo sapiens, ovary, 72 h, methylene blue or CellTiter-Glo. The procedure:
as §1, §2, §3

A further experiment has as its system BC-1. Kind of experiment: Inhibition of cell proliferation, BC-1. The conditions noted are these: Homo sapiens, BC1; peripheral blood; 72 h; methylene blue or CellTiter-Glo. The procedure: as §1, §2, §3
The test system of the next experiment is HT-1080. As to the kind of experiment: Inhibition of cell proliferation, HT-1080. Particulars: Homo sapiens, connective tissue, 72 h, methylene blue or CellTiter-Glo. As for the experimental part: as §1, §2, §3
Another experiment deals with Hela. As to the kind of experiment: Inhibition of cell proliferation, Hela. The conditions noted are these: Homo sapiens, Cervical, 72 h, methylene blue or CellTiter-Glo. The procedure:
as §1, §2, §3

The next experiment deals with T-47D. Kind of experiment: Inhibition of cell proliferation, T-47D. Particulars: Homo sapiens, T47D; breast; 72 h; methylene blue or CellTiter-Glo. The procedure:
as §1, §2, §3

For the compound `C[C@@H](Oc1cc(-n2cnc3cc(-c4cnn(C)c4)ccc32)sc1C(N)=O)c1cccc(OC2CCN(C)CC2)c1Cl` [Example 48], the IC50 (in general, the concentration needed to halve the response being measured) is less than 500 nM in the experiment with SKMEL3; less than 500 nM in the experiment on H1299; less than 500 nM in the experiment with A431; more than 1000 nM in the experiment on SW156; less than 500 nM in the experiment with Hep3B; more than 1000 nM with BT474. Moreover, the IC50 in the experiment with BT549, in the experiment with NCI-N87, in the experiment on Calu1, in the experiment with MV522, in the experiment on HCT116 and with LNCaP was less than 500 nM each time. Moreover, the IC50 is less than 500 nM in the experiment with MX-1; less than 500 nM in the experiment with BDCM; less than 500 nM in the experiment with ASPC3; more than 1000 nM in the experiment with NCI-H727; less than 500 nM in the experiment on CRO-AP2; less than 500 nM in the experiment on BXPC3. The IC50 was less than 500 nM in the experiment with A 704; less than 500 nM in the experiment with A2780; less than 500 nM with BC-1; less than 500 nM with HT-1080; less than 500 nM in the experiment with Hela; more than 1000 nM in the experiment with T-47D.

For the origin of these results see patent US20100075960A1 (priority 2006, published 2010).
